Biological target: T1, GSNOR (GSNO Reductase) (Homo sapiens, UniProt P11766)
T1 construct: made in house; host or cells: E. coli (arabinose-induced)
Assay: GSNOR assay (inhibition of GSNOR activity, change in 340 nm absorbance)
Assay type: biochemical
Details: 100 mM NaPO4 pH 7.4, 0.240 mM GSNO, 0.300 mM NADH, 0.5 μg/mL GSNO Reductase, 1% DMSO, 25° C.; values given as 'about' bounds; read-out: IC50 (GSNOR inhibitor activity)
Protocol: Various compounds were tested in vitro for their ability to inhibit GSNOR activity. […] GSNOR expression and purification is described in Biochemistry 2000, 39, 10720-10729.
GSNOR fermentation: Pre-cultures were grown from stabs of a GSNOR glycerol stock in 2XYT media containing 100 ug/ml ampicillin after an overnight incubation at 37° C. Cells were then added to fresh 2XYT (4L) containing ampicillin and grown to an OD (A600) of 0.6-0.9 at 37° C. before induction. GSNOR expression was induced with 0.1% arabinose in an overnight incubation at 20° C.
GSNOR Purification: E. coli cell paste was lysed by nitrogen cavitation and the clarified lysate purified by Ni affinity chromatography on an AKTA FPLC (Amersham Pharmacia). The column was eluted in 20 mM Tris pH 8.0/250 mM NaCl with a 0-500 mM imidazole gradient. […] GSNOR was recovered in the flowthrough fraction and for crystallography is further purified by Q-Sepharose and Heparin flowthrough chromatography in 20 mM Tris pH 8.0, 1 mM DTT, 10 uM ZnSO4.
GSNOR assay: GSNO and Enzyme/NADH Solutions are made up fresh each day. The Solutions are filtered and allowed to warm to room temperature. GSNO Solution: 100 mM NaPO4 (pH 7.4), 0.480 mM GSNO. 396 μL of GSNO Solution is added to a cuvette followed by 8 μL of test compound in DMSO (or DMSO only for full reaction control) and mixed with the pipette tip. Compounds to be tested are made up at a stock concentration of 10 mM in 100% DMSO. 2 fold serial dilutions are done in 100% DMSO. 8 μL of each dilution are added to an assay so that the final concentration of DMSO in the assay is 1%. The concentrations of compounds tested range from 100 to 0.003 μM. Enzyme/NADH Solution: 100 mM NaPO4 (pH 7.4), 0.600 mM NADH, 1.0 μg/mL GSNO Reductase. 396 μL of the Enzyme/NADH Solution is added to the cuvette to start the reaction. The cuvette is placed in the Cary 3E UV/Visible Spectrophotometer and the change in 340 nm absorbance/min at 25° C. is recorded for 3 minutes. The assays are done in triplicate for each compound concentration. IC50's for each compound are calculated using the standard curve analysis in the Enzyme Kinetics Module of SigmaPlot.
Final assay conditions: 100 mM NaPO4, pH 7.4, 0.240 mM GSNO, 0.300 mM NADH, 0.5 μg/mL GSNO Reductase and 1% DMSO. Final volume: 800 μL/cuvette.

T1 sequence (P11766 whole entry): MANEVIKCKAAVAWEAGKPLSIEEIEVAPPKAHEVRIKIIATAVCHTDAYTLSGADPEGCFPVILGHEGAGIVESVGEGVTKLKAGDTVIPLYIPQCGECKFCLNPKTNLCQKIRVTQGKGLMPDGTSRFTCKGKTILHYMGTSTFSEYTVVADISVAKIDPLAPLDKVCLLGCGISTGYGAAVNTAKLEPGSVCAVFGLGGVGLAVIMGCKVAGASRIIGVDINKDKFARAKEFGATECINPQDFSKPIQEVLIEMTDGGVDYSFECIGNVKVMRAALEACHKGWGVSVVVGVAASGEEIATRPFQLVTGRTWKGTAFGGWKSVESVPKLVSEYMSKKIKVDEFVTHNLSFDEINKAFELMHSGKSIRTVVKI

| Structure (SMILES) | IC50 [nM] |
| --- | --- |
| COc1ccc(-c2ccn(-c3ccc(C(=O)O)cc3)c2-c2ccc(C(N)=O)cc2C)cc1 [Example 19, 4-(2-(4-carbamoyl-2-methylphenyl)-3-(4-methoxyphenyl)-1H-pyrrol-1-yl)benzoic acid] | < 1000 |
| COc1ccc(-c2ccn(-c3ccc(O)c(C(=O)O)c3)c2-c2ccc(C(N)=O)cc2C)cc1 [Example 27, 5-(2-(4-carbamoyl-2-methylphenyl)-3-(4-methoxyphenyl)-1H-pyrrol-1-yl)-2-hydroxybenzoic acid] | < 1000 |
| Cc1cc(C(N)=O)ccc1-c1c(-c2ccc(-n3ccnc3)cc2)ccn1CCC(=O)O [Example 5, 3-(3-(4-(1H-imidazol-1-yl)phenyl)-2-(4-carbamoyl-2-methylphenyl)-1H-pyrrol-1-yl)propanoic acid] | < 1000 |
| COc1ccc(-c2ccn(CC(C)C(=O)O)c2-c2ccc(C(N)=O)cc2C)cc1 (stereo not drawn) [Example 3, 3-(2-(4-carbamoyl-2-methylphenyl)-3-(4-methoxyphenyl)-1H-pyrrol-1-yl)-2-methylpropanoic acid] | < 5000 |
| COc1ccc(-c2ccn(-c3ccc(O)c([N+](=O)[O-])c3)c2-c2ccc(C(N)=O)cc2C)cc1 [Example 17, 4-(1-(4-hydroxy-3-nitrophenyl)-3-(4-methoxyphenyl)-1H-pyrrol-2-yl)-3-methylbenzamide] | < 1000 |
| COc1ccc(-c2ccn(-c3ccc(O)c(F)c3)c2-c2ccc(C(N)=O)cc2C)cc1 [Example 23, 4-(1-(3-fluoro-4-hydroxyphenyl)-3-(4-methoxyphenyl)-1H-pyrrol-2-yl)-3-methylbenzamide] | < 1000 |
| COc1ccc(-c2ccn(CC(F)(F)C(=O)O)c2-c2ccc(C(N)=O)cc2C)cc1 [Example 9, 3-(2-(4-carbamoyl-2-methylphenyl)-3-(4-methoxyphenyl)-1H-pyrrol-1-yl)-2,2-difluoropropanoic acid] | < 5000 |
| Cc1cc(C(N)=O)ccc1-c1c(CCC(=O)O)ccn1-c1ccc(-n2ccnc2)cc1 [Example 13, 3-(1-(4-(1H-imidazol-1-yl)phenyl)-2-(4-carbamoyl-2-methylphenyl)-1H-pyrrol-3-yl)propanoic acid] | < 1000 |
| COc1ccc(-c2ccn(-c3ccc(O)cn3)c2-c2ccc(C(N)=O)cc2C)cc1 [Example 26, 4-(1-(5-hydroxypyridin-2-yl)-3-(4-methoxyphenyl)-1H-pyrrol-2-yl)-3-methylbenzamide] | < 5000 |
| Cc1cc(C(N)=O)ccc1-c1c(-c2ccc(-n3ccnc3C)cc2)ccn1-c1ccc(O)c(F)c1 [Example 29, 4-(1-(3-fluoro-4-hydroxyphenyl)-3-(4-(2-methyl-1H-imidazol-1-yl)phenyl)-1H-pyrrol-2-yl)-3-methylbenzamide] | < 1000 |

Results, then the compound that gave them:

| IC50 [nM] | Structure (SMILES) |
| --- | --- |
| < 1000 | COc1ccc(-c2ccn(-c3ccc(C(=O)O)c(O)c3)c2-c2ccc(C(N)=O)cc2C)cc1 [Example 15, 4-(2-(4-carbamoyl-2-methylphenyl)-3-(4-methoxyphenyl)-1H-pyrrol-1-yl)-2-hydroxybenzoic acid] |
| < 1000 | COc1ccc(-n2ccc(CCC(=O)O)c2-c2ccc(C(N)=O)cc2C)cc1 [Example 6, 3-(2-(4-carbamoyl-2-methylphenyl)-1-(4-methoxyphenyl)-1H-pyrrol-3-yl)propanoic acid] |
| < 5000 | COc1ccc(-c2ccn(-c3ccc(C(=O)O)c(F)c3)c2-c2ccc(C(N)=O)cc2C)cc1 [Example 16, 4-(2-(4-carbamoyl-2-methylphenyl)-3-(4-methoxyphenyl)-1H-pyrrol-1-yl)-2-fluorobenzoic acid] |
| < 1000 | COc1ccc(-c2ccn(-c3cc(F)c(O)c(F)c3)c2-c2ccc(C(N)=O)cc2C)cc1 [Example 25, 4-(1-(3,5-difluoro-4-hydroxyphenyl)-3-(4-methoxyphenyl)-1H-pyrrol-2-yl)-3-methylbenzamide] |
| < 5000 | COc1ccc(-c2ccn(-c3ccc(C(=O)O)c(Cl)c3)c2-c2ccc(C(N)=O)cc2C)cc1 [Example 20, 4-(2-(4-carbamoyl-2-methylphenyl)-3-(4-methoxyphenyl)-1H-pyrrol-1-yl)-2-chlorobenzoic acid] |
| < 1000 | Cc1cc(C(N)=O)ccc1-c1c(-c2ccc(-n3ccnc3C)cc2)ccn1-c1cc(F)c(O)c(F)c1 [Example 30, 4-(1-(3,5-difluoro-4-hydroxyphenyl)-3-(4-(2-methyl-1H-imidazol-1-yl)phenyl)-1H-pyrrol-2-yl)-3-methylbenzamide] |
| < 1000 | COc1cc(Cl)ccc1-n1ccc(CCC(=O)O)c1-c1ccc(C(N)=O)cc1C [Example 14, 3-(2-(4-carbamoyl-2-methylphenyl)-1-(4-chloro-2-methoxyphenyl)-1H-pyrrol-3-yl)propanoic acid] |
| < 1000 | COc1ccc(-c2ccn(CCC(=O)O)c2-c2ccc(C(N)=O)cc2C)cc1 [Example 1, 3-(2-(4-carbamoyl-2-methylphenyl)-3-(4-methoxyphenyl)-1H-pyrrol-1-yl)propanoic acid] |

Source: patent publication US8642628B2, “Pyrrole inhibitors of S-nitrosoglutathione reductase” (N30 Pharmaceuticals, Inc., priority 2008, dated 2014)
